Results taken from patent US12194053B2, “Compositions and methods for reducing oxidative damage” (University of Louisville Research Foundation, Inc., priority 2012, dated 2025).
Read-outs that look alike come from different tables or passages of the source.

Test system: porcine lenses
Text: To analyze the efficacy and the biocompatibility of the compositions produced as described above, an ex viva analysis was undertaken in which the compositions were applied to eye lenses ex vivo. In these experiments, harvested porcine lenses were utilized.
Upon establishing the culturing conditions for the lenses, hyperoxic conditions were created and used to test the efficacy of the gelled compositions in protecting against oxidative damage and cataract formation. Briefly, in these experiments, two methods were used to test the efficacy of the compositions in preventing oxidative lens damage. Initially, oxidative damage with superoxide radicals generated by the addition of hydrogen peroxide into the lens culture medium was employed.

## OO [H2O2, hydrogen peroxide]
0.3 mM H2O2
  day lens clarity started to be affected: 9 days
  lens area opacified by day 14: 40%
0.4 mM H2O2
  day lens opacity started: 5 days
  lens area covered by opacity by day 14: 60%
0.5 mM H2O2
  day lens opacity started: 3 days
  lens opacity on day 14: 90%
1 mM H2O2
  extent of cataract by day 5: total cataract
1 mM H2O2 in lens culture medium
  time lens opacity first appeared: 24 h
H2O2 concentrations below 0.3 mM, up to 28 days of ex vivo culturing
  lens opacification: did not appear to cause any lens opacification
